Measured values from ChEMBL document CHEMBL1201862, “PubChem BioAssay data set” (2004).
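Exposure lasted 48 hours, with cells grown in 96-well plates and compounds tested at five concentrations. Here, GI50 denotes the concentration required for 50% inhibition of growth.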 Calls of active or inactive are those of the source. No stated cut-off is given here; in the data, active = GI50 up to about 1.1 µM and inactive = higher.

Legend:
Test in all cases: growth of human tumour cells (NCI), 48 h
[1] = test system: 786-0
[2] = test system: A498
[3] = test system: A549
[4] = test system: ACHN
[5] = test system: BT-549
[6] = test system: CAKI-1
[7] = test system: CCRF-CEM
[8] = test system: COLO 205
[9] = test system: DU-145
[10] = test system: EKVX
[11] = test system: HCC 2998
[12] = test system: HCT-116
[13] = test system: HCT-15
[14] = test system: HL-60
[15] = test system: HOP-62
[16] = test system: HOP-92
[17] = test system: HT-29
[18] = test system: Hs-578T
[19] = test system: IGROV-1
[20] = test system: K562
[21] = test system: KM12
[22] = test system: LOX IMVI
[23] = test system: M14
[24] = test system: MCF7
[25] = test system: MDA-MB-231
[26] = test system: MDA-MB-435
[27] = test system: MOLT-4
[28] = test system: Malme-3M
[29] = test system: NCI-H226
[30] = test system: NCI-H23
[31] = test system: NCI-H460
[32] = test system: NCI-H522
[33] = test system: NCI/ADR-RES
[34] = test system: OVCAR-3
[35] = test system: OVCAR-4
[36] = test system: OVCAR-5
[37] = test system: OVCAR-8
[38] = test system: PC-3
[39] = test system: RPMI-8226
[40] = test system: RXF 393
[41] = test system: SF-268
[42] = test system: SF-295
[43] = test system: SF-539
[44] = test system: SK-MEL-28
[45] = test system: SK-MEL-2
[46] = test system: SK-MEL-5
[47] = test system: SK-OV-3
[48] = test system: SN12C
[49] = test system: SNB-19
[50] = test system: SNB-75
[51] = test system: SR
[52] = test system: SW-620
[53] = test system: T47D
[54] = test system: TK-10
[55] = test system: U-251
[56] = test system: UACC-257
[57] = test system: UACC-62
[58] = test system: UO-31

SMILES: C=C1C(=O)OC2CC(C)C(C(CC(C)=O)OC(C)=O)=CCC12 (stereo not drawn)
- GI50 [1]: 2.74 µM (inactive)
- GI50 [2]: 18.7 µM (inactive)
- GI50 [3]: 28.2 µM (inactive)
- GI50 [4]: 9.27 µM (inactive)
- GI50 [5]: 6.19 µM (inactive)
- GI50 [6]: 3.16 µM (inactive)
- GI50 [7]: 2.61 µM (inactive)
- GI50 [8]: 6.82 µM (inactive)
- GI50 [9]: 16.5 µM (inactive)
- GI50 [10]: 11.8 µM (inactive)
- GI50 [11]: 10.5 µM (inactive)
- GI50 [12]: 1.79 µM (inactive)
- GI50 [13]: 2.75 µM
- GI50 [14]: 3.25 µM (inactive)
- GI50 [15]: 21 µM (inactive)
- GI50 [16]: 6.87 µM (inactive)
- GI50 [17]: 8.41 µM (inactive)
- GI50 [18]: > 100 µM (inactive)
- GI50 [19]: 13.3 µM (inactive)
- GI50 [20]: 3.24 µM (inactive)
- GI50 [21]: 18.6 µM (inactive)
- GI50 [22]: 6.78 µM (inactive)
- GI50 [23]: 11 µM (inactive)
- GI50 [24]: 4.74 µM (inactive)
- GI50 [25]: 13.5 µM (inactive)
- GI50 [26]: 16.3 µM (inactive)
- GI50 [27]: 4.07 µM (inactive)
- GI50 [28]: 2.02 µM (inactive)
- GI50 [29]: 34.1 µM (inactive)
- GI50 [30]: 17.2 µM (inactive)
- GI50 [31]: 17 µM (inactive)
- GI50 [32]: 1.73 µM (inactive)
- GI50 [33]: 13.8 µM (inactive)
- GI50 [34]: 7.06 µM (inactive)
- GI50 [35]: 17 µM (inactive)
- GI50 [36]: 17.6 µM (inactive)
- GI50 [37]: 18.9 µM (inactive)
- GI50 [38]: 19.3 µM (inactive)
- GI50 [39]: 3.87 µM (inactive)
- GI50 [40]: 15.9 µM (inactive)
- GI50 [41]: 22.5 µM (inactive)
- GI50 [42]: 23.8 µM (inactive)
- GI50 [43]: 15.3 µM (inactive)
- GI50 [44]: 8.24 µM (inactive)
- GI50 [45]: 18 µM (inactive)
- GI50 [46]: 14.2 µM (inactive)
- GI50 [47]: 37.9 µM (inactive)
- GI50 [48]: 4.27 µM (inactive)
- GI50 [49]: 36.6 µM (inactive)
- GI50 [50]: 23.1 µM (inactive)
- GI50 [51]: 2.88 µM (inactive)
- GI50 [52]: 3.03 µM (inactive)
- GI50 [53]: 20.4 µM (inactive)
- GI50 [54]: 17.3 µM (inactive)
- GI50 [55]: 15.8 µM (inactive)
- GI50 [56]: 16.5 µM (inactive)
- GI50 [57]: 11.7 µM (inactive)
- GI50 [58]: 16.2 µM (inactive)
